Consider four compounds from patent US6498150B2, “Low molecular weight cell, bone marrow and immune stimulants” (priority 1995, dated 2002).

One test has as its system anti-Pn14 antibodies. Also noted: species or system BALB/c female mice. To be noted: mouse, in vivo.
The subject of another test is CD34+ cells. As to the kind of experiment: Blood cell stimulation: CD34+ progenitor suspension culture, lineage marker ELISA. Particulars: for neutrophils, Percent difference (relative to control): CD15; for red blood cells, Percent difference (relative to control): glycophorin A. The format is cell-based, human. In general terms: In an ELISA, binding on a coated surface is turned into a signal by an enzyme label.

In test [1] the test system is CHO cells containing a cloned gene for tissue plasminogen activator (tPA). Briefly: Stimulation of tPA production from CHO cells (IMUBIND total tPA ELISA). The format is cell-based. To be noted: for Culture Cell Density / Supernatant Concentration (tPA) / Supernatant Concentration relative to control / tPA per cell / tPA per cell relative to control / ELISA Optical Density: 1 pg/ml; for Culture Cell Density: cell numbers per milliliter, trypan-blue, hemacytometer; for Supernatant Concentration (tPA): from standard curve; for ELISA Optical Density: supernatant at end of log phase.

Test [2] concerns Hybridoma cells (ATCC #CRL-8014, OKT-8). Briefly: Production of monoclonal antibodies from hybridomas (sandwich ELISA). The format is cell-based. To be noted: 200 pg/ml.
Test [3] relates to delayed type hypersensitivity (DTH). The format is in vivo, mice.
[4] abbreviates: Study 1: 1 ng/ml compound, 2000 cells per well, 10 days, CD14.
Where [5] appears, read: Study 1: 1 ng/ml compound, 2000 cells per well, 10 days.
Setting [6] is: Study 2: 1 ug/ml, 1700 cells per well.

Values joined by “and” are separate entries in the source; they are usually repeats but may differ in a detail not shown here. Equal entries are not always repeated. Where two headings read alike, the source gives them in different places. Marks after values point to notes of the source that are not given here.

In the case of `O=C(CCNC(=O)OCc1ccccc1)NCCOP(=O)(O)O` [Taurox-BOP, N-carboxybenzoxy-β-alanyl-ethanolamine phosphate], in the test on anti-Pn14 antibodies, the “Mean Change in O.D. from pretest, Day 4 after injection with antigen” value came out at 0 and the “Mean Change in O.D. from pretest, Day 14 after injection with antigen” value was determined as 366. For the same compound, the “Mean Change in O.D. from pretest, Day 14 after injection with antigen” value in the test on anti-Pn14 antibodies (ip) is 877 and 515. Also, in the test on CD34+ cells (setting [4]), the “monocytes, Percent difference (relative to control)” value is on record as 18%. In the test on CD34+ cells (setting [5]), the “neutrophils, Percent difference (relative to control)” value was 21% and the “red blood cells, Percent difference (relative to control)” value turned out to be 0%. Moreover, in the test with CD34+ cells (setting [6]), the “CD34 cells, Percent difference (relative to control)” value turned out to be 33%; the “RBC, Percent difference (relative to control)” value came out at 55%; the “monocytes, Percent difference (relative to control)” value came out at 9%.
With `NCCC(=O)NCCS(=O)(=O)O` [Taurox-S, β-alanyl-taurine], in the test with anti-Pn14 antibodies, the “Mean Change in O.D. from pre-boost, 10 days after boost with UNCONJUGATED polysaccharide” value (from here on “Mean Change in O.D. from pre-boost”) is recorded as 204; the “Mean Change in O.D. from pretest, Day 4 after injection with antigen” value was found to be 2.9; the “Mean Change in O.D. from pretest, Day 14 after injection with antigen” value was found to be 697. Moreover, in the test on anti-Pn14 antibodies (ip), the “Mean Change in O.D. from pretest, Day 14 after injection with antigen” value was 681 and 671. Moreover, in the test on CD34+ cells (setting [4]), the “monocytes, Percent difference (relative to control)” value was found to be 47%. For the same compound, in the test on CD34+ cells (setting [5]), the “neutrophils, Percent difference (relative to control)” value came out at 55% and the “red blood cells, Percent difference (relative to control)” value stood at 50%.
On to `O=C(CCNC(=O)OCc1ccccc1)NCCS(=O)(=O)O` [Taurox-SB, N-carboxybenzoxy-β-alanyl-taurine], for which, in test [1] (listed as #1), the “Culture Cell Density” value is on record as 4.0 × 10^5, the “Supernatant Concentration (tPA)” value was 1,492.8 nanograms/ml, the “Supernatant Concentration relative to control” value is “[3.5 × control]” and the tPA per cell is on record as 3.73 Picograrns. Further, in test [1] (listed as #1), the “tPA per cell relative to control” value was “[1.9 × control]” and the “ELISA Optical Density” value amounted to 0.332. Further, in test [1] (listed as #2), the “Culture Cell Density” value is reported as 4.8 × 10^5, the “Supernatant Concentration (tPA)” value is listed as 1,389.4 nanograms/ml, the “Supernatant Concentration relative to control” value was “[3.3 × control]” and the tPA per cell is on record as 2.89 Picograrns. Also, the “ELISA Optical Density” value in test [1] (listed as #2) stood at 0.317. Also, in test [1] (listed as #3), the “Culture Cell Density” value was 5.2 × 10^5, the “Supernatant Concentration (tPA)” value is 2,113.0 nanograms/ml, the “Supernatant Concentration relative to control” value was “[5.0 × control]” and the tPA per cell is on record as 4.06 Picograrns. Also, in test [1] (listed as #3), the “tPA per cell relative to control” value is “[2.1 × control]” and the “ELISA Optical Density” value is recorded as 0.422. Also, in test [1] (Table 2), the “alteration of per-cell production of tPA” value is recorded as “about 2 fold”. Moreover, in the test with anti-Pn14 antibodies, the “Mean Change in O.D. from pre-boost” value came out at 139; the “Mean Change in O.D. from pretest, Day 4 after injection with antigen” value is given as 1.1; the “Mean Change in O.D. from pretest, Day 14 after injection with antigen” value was 697. Moreover, in the test with anti-Pn14 antibodies (ip), the “Mean Change in O.D. from pretest, Day 4 after injection with antigen” value was 6.2 and 3.9; the “Mean Change in O.D. from pretest, Day 14 after injection with antigen” value was 705 and 483. Also, the “monocytes, Percent difference (relative to control)” value with CD34+ cells (setting [4]) came out at 15%. In the test with CD34+ cells (setting [5]), the “neutrophils, Percent difference (relative to control)” value was 0% and the “red blood cells, Percent difference (relative to control)” value is on record as 0%. Moreover, in test [2], the “Increase of 1 gG, μg/ml over 0-control” value amounted to 316% and the “Increase of IgG, pg/cell over 0-control” value worked out at 93%. In addition, the “IgG, pg/cell” value in test [2] (protein-free media) came to 80.6 pg/cell. For the same compound, in test [2] (protein-free media, Mab in culture aliquots), the “1 gG” value was 50 µg/mL. Further, the “moderate responders compared with saline injected group” value in test [3] (24 hrs) was “more moderate responders than the saline injected group”. For the same compound, in test [3] (mouse, in vivo), the “Percent of Animals with Major DTH at 24 hrs” value is reported as 50* Percent, the “Percent of Animals with Major DTH at 48 hrs.” value was found to be 50%, the “Percent of Animals with Major DTH at either 24 or 48 hrs.” value was found to be 60% and the “Percent of Animals with Moderate DTH at 24 hrs” value is reported as 70%. Moreover, in test [3] (mouse, in vivo), the “moderate response rate at 24 hrs” value is “eight of ten”, the “total treated animals with major immune response at 24 hours” value worked out at 14 animals and the “treated animals with major response at either 24 or 48 hours post challenge” value was found to be 21 animals. Further, in test [3] (mouse, in vivo, iv), the “Percent of Animals with Major DTH at 24 hrs” value was 20% and 10%; the “Percent of Animals with Major DTH at 48 hrs.” value was 20% and 10%; the “Percent of Animals with Moderate DTH at 24 hrs” value was 70% and 60% and 50% and 80* Percent and 40%.
As for “N-carboxybenzoxy-β-alanyl aminoethylphosphonic acid [Taurox-BP]”, in the test with anti-Pn14 antibodies, the “Mean Change in O.D. from pre-boost” value is 187; the “Mean Change in O.D. from pretest, Day 4 after injection with antigen” value was found to be 3.3; the “Mean Change in O.D. from pretest, Day 14 after injection with antigen” value was found to be 924. The “monocytes, Percent difference (relative to control)” value in the test with CD34+ cells (setting [4]) is recorded as 18%. Moreover, in the test with CD34+ cells (setting [5]), the “neutrophils, Percent difference (relative to control)” value is listed as 14% and the “red blood cells, Percent difference (relative to control)” value stood at 1%. Moreover, in the test on CD34+ cells (setting [6]), the “CD34 cells, Percent difference (relative to control)” value was found to be 0%; the “RBC, Percent difference (relative to control)” value came to 4%; the “monocytes, Percent difference (relative to control)” value was 2%.
